Reference: PMC3326523, “Histone Recognition and Large-Scale Structural Analysis of the Human Bromodomain Family” (Cell, 2012)
Like-named read-outs stand apart in the source and are kept apart here. Where no end group is shown, it is not given here.

Columns and labels:
CREBBP = target: T1, CREBBP (Homo sapiens, UniProt Q92793); assay: Isothermal titration calorimetry (ITC) of histone peptides; assay type: binding
T1 construct: His6 tag with TEV cleavage site (N, cleaved yes); made in house; host or cells: E. coli BL21(DE3)-R3
T1 sequence (Q92793 with tags, fused parts or gaps): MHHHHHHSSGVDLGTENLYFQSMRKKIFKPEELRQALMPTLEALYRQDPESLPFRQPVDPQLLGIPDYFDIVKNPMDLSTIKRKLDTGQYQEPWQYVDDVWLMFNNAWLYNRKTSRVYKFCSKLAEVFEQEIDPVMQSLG

33 representative BRDs = assay: SPOT peptide array of singly acetylated histone peptides; assay type: binding, human; conditions: His6-tagged BRDs 1 μM; in words
Method: Peptides were synthesized on cellulose membranes using a MultiPep SPOT peptide arrayer (Intavis). His6-tagged BRDs were added to a final concentration of 1 μM, and blots were developed using an ECL kit (Thermo Scientific) following the manufacturer's protocol.
Three different types of SPOT membrane were utilized in order to probe preferences of BRD recognition sites: the first array contained peptides from all four core histones (H2A, H2B, H3 and H4) covering all possible lysine acetylation sites, with peptide sizes ranging from 10 to 14 amino acids. […]
Peptides for the first two arrays were synthesized directly on cellulose membranes (Intavis) using a MultiPep SPOT peptide arrayer (Intavis) and commercially available standard (Intavis) or modified (Bachem) L-amino acid precursors as previously described ([Nady et al., 2008]). The quality of the synthesized array was evaluated as follows: i) immune reactive peptides were identified by incubation of the membrane with an anti-His antibody in the absence of any His6-tagged BRD. […]
Each membrane was washed 3 times in PBST, blocked for 1 hr with 10% milk in PBST, and washed again 3 × 5 min with PBST. […] Chem-illuminescence was detected with an Image reader (Fujifilm LAS-4000 ver.2.0) with an incremental exposure time of 5 min for a total of 80 min. […]

| Compound | interaction with BRDs in SPOT array of singly acetylated peptides (33 representative BRDs) | also measured |
| --- | --- | --- |
| CC(=O)NCCCC[C@H](NC(=O)CNC(=O)CNC(=O)[C@@H](NC(=O)[C@H](COP(=O)(O)O)NC(=O)[C@@H](N)CCCCN)[C@@H](C)O)C(=O)N[C@@H](C)C(=O)N1CCC[C@H]1C(=O)N[C@@H](CCCNC(=N)N)C(=O)N[C@@H](CCCCNC(C)=O)C(=O)N[C@@H](CCC(N)=O)C(=O)N[C@@H](Cc1ccc(O)cc1)C(=O)O [H3pS10K14acK18ac] |  | Kd (CREBBP; ITC, 10 or 15°C, 50 mM HEPES pH 7.5, 150 mM NaCl, read-out: KD of CREBBP): 131 µM |
| H2BK85: promiscuous H2BK85-containing array peptide (AHYNK(Ac)RSTITSRE) | interacted with most BRDs |  |
| H2AK36: promiscuous H2AK36-containing array peptide (LLRK(Ac)GNYSERVGA) | interacted with most BRDs |  |
| CC(=O)NCCCC[C@H](NC(=O)CNC(=O)CNC(=O)[C@@H](NC(=O)[C@H](CO)NC(=O)[C@@H](N)CCCCN)[C@@H](C)O)C(=O)N[C@@H](C)C(=O)N1CCC[C@H]1C(=O)N[C@@H](CCCNC(=N)N)C(=O)N[C@@H](CCCCN)C(=O)N[C@@H](CCC(N)=O)C(=O)N[C@@H](Cc1ccc(O)cc1)C(=O)O [H3K14ac] |  | Kd (CREBBP): 733 µM |
